Measured values as given in patent US4731363A, “Thromboxane synthase inhibitors as insulin lowering agents and antiobesity agents” (priority 1986, dated 1988).

Legend:
[1] = target: T1, thromboxane synthase (Guinea Pig Lung Microsomes) (Cavia porcellus, UniProt H0UT36); experiment: biochemical; conditions: enzyme source G = Guinea Pig Lung Microsomes; read-out: IC50
T1 construct: The lungs were removed, freed of trachea and the majority of blood removed by rinsing the lungs with buffer; from tissue; host or cells: lungs of male guinea pigs (microsomes, 110,000 g pellet)
T1 sequence (H0UT36 entry or part of it): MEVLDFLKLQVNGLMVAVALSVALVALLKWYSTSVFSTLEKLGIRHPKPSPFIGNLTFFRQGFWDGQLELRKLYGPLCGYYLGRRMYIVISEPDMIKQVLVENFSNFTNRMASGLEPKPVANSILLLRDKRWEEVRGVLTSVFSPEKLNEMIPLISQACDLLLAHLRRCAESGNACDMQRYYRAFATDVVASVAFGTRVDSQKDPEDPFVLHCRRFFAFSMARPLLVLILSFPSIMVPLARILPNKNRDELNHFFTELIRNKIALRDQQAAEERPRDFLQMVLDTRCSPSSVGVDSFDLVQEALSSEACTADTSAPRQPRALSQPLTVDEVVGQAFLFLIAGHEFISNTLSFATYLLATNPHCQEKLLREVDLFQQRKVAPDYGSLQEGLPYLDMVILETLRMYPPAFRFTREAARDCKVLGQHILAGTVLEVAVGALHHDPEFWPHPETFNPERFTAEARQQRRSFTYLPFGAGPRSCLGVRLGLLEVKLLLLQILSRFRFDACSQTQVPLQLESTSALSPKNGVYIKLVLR
Method: In said assay procedure, microsomes from guinea pig lung or human platelets are added to an endoperoxide intermediate in prostaglandin biosynthesis and the inhibitor in phosphate buffer solution followed by incubation, extraction and determination of the extent of thromboxane synthase inhibition by TLC with radiochromatographic profile analysis. […]
Isolation of Guinea Pig Lung Microsomes
Four male guinea pigs (.congruent.500 g each) were sacrificed by spinal dislocation. The lungs were removed, freed of trachea and the majority of blood removed by rinsing the lungs with buffer (0.1M phosphate pH 7.5) via the pulmonary artery. The lung tissue (18.3 g total wet wt.), was then minced, suspended in three volumes of buffer and homogenized using, initially, a Brinkmann polytron homogenizer and, finally, a glass-teflon tissue grinder. The homogenate was centrifuged at 12,000 g for 1 hr. and the resultant supernatant recentrifuged at 110,000 g for 1 hr. The 110,000 g pellet was taken up in 10 ml of buffer, divided into 5×2 ml aliquots and stored at -70° until use.
(§1) Low specific activity PGH2 (3.3 μCi/μmole) was obtained from Dr. W. E. M. Lands of the University of Michigan. PGH2 of higher specific activity (16.0 μCi/μmole) was purchased from Ran Biochemicals, Tel-Aviv, Israel.
(§2) The inhibitors tested were prepared as solutions (1-10 mg/ml) in 95% ethanol.
(§3) Assay for Thromboxane Synthase
(§4) To a 12×75 mm tube containing [1-^14 C] PGH2 (2 μg, 0.01 μCi or 0.05 μCi) and inhibitor (1 mM final assay concentration, in 10 μl of ethanol) in 225 μl of phosphate buffer (0.1M, pH 7.5), was added to an aliquot of guinea pig lung microsomes (25 μl, containing 400 μg protein) or an aliquot of human platelet microsomes (25 μl, containing .congruent.[…] protein). The solution was incubated in a 22° water bath for 2 min.; ether (1 ml) and citric acid (25 μMoles) were added, and the tube plunged into an acetone-dry ice bath. The ether extract was transferred to a 1.0 ml Reacti-vial, and the volume reduced under nitrogen to .congruent.50 μl.
(§5) The extract was applied to an I.T.L.C., type SG, glass fiber sheet (Gelman Instrument Co., Ann Arbor, Mich.) and developed in isooctane; methyl ethyl ketone: acetic acid (100:19:1 or 100:9:1) (19). The sheets were air dried and scanned using a Berthold LB 2760 Radiochromatographic Scanner. In certain cases, based on the radiochromatographic profile obtained, the sheets were cut, the appropriate regions placed in scintillation vials, 10 ml of LSC cocktail (Yorktown Research, S. Hackensack, NJ) added, and the relative cpm determined.

[2] = tested on: male Zucker rats; experiment: Carcass weight and carcass lipid and protein levels in male Zucker rats; type: in vivo, rat; conditions: 29 days; for Carcass Protein % of carcass weight / Carcass Protein total / Carcass Lipids % of carcass weight / Carcass Lipids total / Carcass Weight: mean ± S.E.
Method: In one study, carcass composition was determined. After treatment, rats were sacrificed by decapitation, and livers and blood were removed. Carcasses were weighed, saponified in alcoholic potassium hydroxide, acidified and extracted with petroleum ether. The petroleum ether supernatants were transferred to preweighed glass vials, evaporated immediately to dryness under nitrogen and reweighed. Total carcass data are expressed in grams and percentages of carcass weight. An aliquot of saponified carcass extract was neutralized, and total carcass nitrogen was determined using Kjeldahl procedure. Carcass protein data are expressed in grams and percentages of carcass weight.
^a Four month old male Zucker rats (four per group) were fed G70:1%
corn oil diet ad libitum for 24 days prior to treatment.
1[4(1H--imidazol1-yl)phenyl]ethanone was then mixed into the G70:1% corn
oil diet and rats were fed ad libitum for 29 days. On day 29 rats were
killed by decapitation and the carcasses (minus liver and blood) were
analyzed for total lipid and protein. Each value is the mean ± S.E.
^b Amount of 1[4(1H--imidazol1-yl)phenyl]ethanone ingested per day pe
^c Values in parentheses indicate percent of control.

[3] = target: T2, thromboxane synthase (Human Platelet Microsomes) (Homo sapiens, UniProt P24557); experiment: Thromboxane synthase inhibition, human platelet microsomes; type: biochemical; conditions: enzyme source H = Human Platelet Microsomes; read-out: IC50
T2 construct: Platelets were obtained from 320 ml of whole blood and resuspended in 5.0 ml of Krebs-Hensleit buffer; from tissue; host or cells: human platelets (microsomes, 110,000 g pellet)
T2 sequence (P24557 1-533): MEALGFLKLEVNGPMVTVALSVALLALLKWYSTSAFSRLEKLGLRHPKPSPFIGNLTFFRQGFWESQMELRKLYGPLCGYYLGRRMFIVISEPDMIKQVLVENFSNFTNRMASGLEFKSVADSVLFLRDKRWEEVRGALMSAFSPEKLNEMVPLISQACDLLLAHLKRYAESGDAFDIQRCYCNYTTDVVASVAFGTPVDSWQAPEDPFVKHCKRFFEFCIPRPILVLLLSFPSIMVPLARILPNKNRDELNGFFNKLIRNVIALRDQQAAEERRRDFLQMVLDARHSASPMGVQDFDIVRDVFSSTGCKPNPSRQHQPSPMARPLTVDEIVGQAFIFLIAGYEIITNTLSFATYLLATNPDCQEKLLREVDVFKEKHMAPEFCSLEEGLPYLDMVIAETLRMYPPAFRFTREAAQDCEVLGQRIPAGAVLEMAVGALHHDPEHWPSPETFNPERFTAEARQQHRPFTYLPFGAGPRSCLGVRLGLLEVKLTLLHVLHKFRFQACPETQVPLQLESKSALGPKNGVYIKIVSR
Method: In said assay procedure, microsomes from guinea pig lung or human platelets are added to an endoperoxide intermediate in prostaglandin biosynthesis and the inhibitor in phosphate buffer solution followed by incubation, extraction and determination of the extent of thromboxane synthase inhibition by TLC with radiochromatographic profile analysis.
(§6) Determination of Inhibition of Thromboxane Synthase Activity Isolation of Human Platelet Microsomes
Platelets were obtained from 320 ml of whole blood and resuspended in 5.0 ml of Krebs-Hensleit buffer (CA^+2 free). After three consecutive freeze-thawing cycles, homogenization and centrifugation at 12,000 g for 45 min., the 12,000 supernatant was recentrifuged at 110,000 g for 60 min. The resultant pellet was resuspended in phosphate buffer (0.5 ml, 0.1M, pH 7.5) and stored at -70° until use.
as §1, §2, §3, §4, §5

[4] = target: TXA2 Synthase; experiment: TXA2 synthase IC50 as listed in Table I (enzyme source not stated); type: biochemical
Method: as §6, §3, §4, §5

[5] = Lean, 98 mg per day per kg in diet
[6] = Lean, 98 mg per day per kg in diet, P ≤ 0.05
[7] = Obese, 87 mg per day per kg in diet

CC(=O)c1ccc(-n2ccnc2)cc1 [1-[4-(1H--imidazol-1-yl)phenyl]ethanone, 1-[4-(1H-imidazol-1-yl)phenyl]ethanone]
IC50 [1]: 1 to 10 µM
Carcass Lipids % of carcass weight, percent of control [2, 5]: 60% of control
Carcass Lipids total, percent of control [2, 5]: 50% of control
Carcass Protein % of carcass weight, percent of control [2, 5]: 111% of control
Carcass Protein total, percent of control [2, 5]: 87% of control
Carcass Weight, percent of control [2, 5]: 84% of control
Carcass Protein % of carcass weight [2, 5]: 21 ± 2 % of carcass weight
Carcass Protein total [2, 5]: 75 ± 5 g
Carcass Lipids % of carcass weight [2, 6]: 8 ± 1 % of carcass weight
Carcass Lipids total [2, 6]: 29 ± 5 g
Carcass Weight [2, 6]: 361 ± 27 g
Carcass Lipids % of carcass weight, percent of control [2, 7]: 104% of control
Carcass Lipids total, percent of control [2, 7]: 86% of control
Carcass Protein % of carcass weight, percent of control [2, 7]: 131% of control
Carcass Protein total, percent of control [2, 7]: 109% of control
Carcass Weight, percent of control [2, 7]: 83% of control
Carcass Lipids % of carcass weight [2, 7]: 49 ± 1 % of carcass weight
Carcass Lipids total [2, 7]: 225 ± 6 g
Carcass Protein % of carcass weight [2, 7]: 18 ± 2 % of carcass weight
Carcass Protein total [2, 7]: 81 ± 4 g
Carcass Weight ([2]; Obese, 87 mg per day per kg in diet, P ≤ 0.05): 460 ± 28 g
IC50 [3]: 1 to 10 µM
IC50 [4]: 10 µM
